Legend:
[1] = system: cell mediated immune response (DTH); assay: SRBC induced delayed type hypersensitivity (DTH) response; assay type: in vivo, mice; settings: 5 mg/kg p.o.
Experimental: Test material was administered 2 h after immunization of mice by 200 μl of 5×10^9 SRBCs/ml. On 7th day, the thickness of the left hind foot was measured with spheromicrometer (0.01 mm pitch) and was considered as control. These mice were then challenged by injecting the 20 μl of 5×10^9 SRBCs/ml intradermally into the left hind footpad. The footpad thickness was measured again at 24 h after challenge (Doherty, 1981).

[2] = system: skin allograft rejection; assay: Skin allograft rejection time; assay type: in vivo, mice; settings: for GRAFT REJECTION (Percent), delayed: 5 mg/kg p.o.
Experimental: The modified method of Billingham and Medawar (1951) [[…]] was followed to study the skin allograft rejection time in mice. Graded doses of test material AD-B-63B were administered to the animals for 7 days and graft rejection time (GRT) was recorded by daily observation of epithelial skin layer survival. […] The basic mechanism involved in increase in graft rejection time is the suppression of T lymphocytes. After transplantation, MHC peptide complexes of the foreign organ are recognized by CD4+ and CD8+ T cells of the recipient as non-self antigens. These T cells differentiate into effector T cells and stimulate an immune response. After T cells differentiate and migrate to the site, macrophages and other inflammatory agents are mediated to the site. Cytotoxic T cells (CD8+) lyse the endothelial cells on the graft, CD4+ Th1 activate macrophages and CD4+ Th2 aid in antibody production.

[3] = system: peritoneal murine macrophages; assay: Phagocytosis of heat killed Candida albicans by murine macrophages (in vitro); assay type: cell-based; settings: 5 μg/ml
Experimental: The method of Lehrer (1981) [Lehrer, R. I. Ingestion and destruction of Candida albicans. (1981) In: Methods for studying mono-nuclear phagocytes. Eds. Adams, D. O., Edelson, P. J. and Koren, H. (Academic Press, New York) 693-7081 was followed. The percentage and average number of Candida albicans cells (heatkilled) ingested by peritoneal murine macrophages was calculated. AD-B-63B was tested at the doses of 1, 2.5, Sand 10 μg/mL (Table 4).

[4] = system: leucocyte migration; assay: In vivo leucocyte migration (carrageenan induced pleurisy); parameters: species or system mice; settings: 5 mg/kg p.o.
Experimental: Mice were injected with 0.2 ml of carrageenan (1% w/v) solution in sterilised normal saline into the pleural cavity by the modified method of Meacock and Kitchen, 1979 [Meacock S C R, Kitchen E A, (1979). Effect of non-steroidal antiinflammatory drug benoxaprofen on leukocyte migration. Journal of Pharmacy & Pharmacology; 31: 366-370]. The test drug was administered orally 1 h before and 6 h after the injection. After 24 h of carrageenan injection the pleural exudate was collected, volume measured and the total leucocyte count of the pleural fluid was determined (Table 3). Flowcytometry as a tool for evaluation of neutrophils is particularly useful because of their larger size than monocytes and lymphocytes when analysed on the forward scatter [FSc]. The percentage of these can be analysed by selectively ‘gating’ the neutrophils without physical separation of the cells (FIG. 4).

[5] = system: humoral antibody response; assay: SRBC induced haemagglutination antibody titre (humoral immune response); assay type: in vivo, mice
Experimental: 200 μl of 5×10^9 SRBC/ml was used to immunize the animals on day 0. Animals were treated with graded doses of AD-B-63B i.e., 1, 2.5, 5 and 10mg/kg p.o. for next six consecutive days. Blood samples were collected on day 7 for antibody titre assay. Haemagglutination antibody titre was determined following the microtitration technique described by Nelson and Midenhall, 1967. The value of highest serum dilution causing visible Haemagglutination was taken as titre. BSA saline alone served as control (Table 7).

[6] = system: Interleukin-1beta (IL-1β); assay: Extracellular IL-1β in LPS stimulated murine neutrophils (ELISA, in vitro); assay type: cell-based; settings: 100 μg/ml
Experimental: Neutrophils were separated from whole blood by Histopaque gradient method (Histopaque-No. 1077). Cell count was adjusted to approximately 10^5/[…]. Lipopolysaccharide, at the concentration of 10 ng/ml was used as stimulus in in-vitro studies. […] Extracellular IL-1β was estimated through ELISA (Table 2) [Weir, R. E., Morgan, A. R., Britton, W. J., Butlin, C. R., Dockrell, H. M., 1994. Development of a whole blood assay to measure T cell responses to leprosy: a new tool for immuno-epidemiological fields studies of leprosy immunity. J. Immunol. Methods. 176, 93; Hussain, R., Kaleem, A., Shahid, F., Dojki, M., Jamil, B., Mehmood, H., Dawood, G., Dockrell, H., 2002. Cytokine profiles using whole blood assays can discriminate between tuberculosis patients and healthy endemic controls in a BCG-vaccinated population. J. Immunol. Methods. 264, 95-108]

[7] = system: TNF-α; assay: Intracellular TNF-α estimation in LPS activated murine neutrophils by flowcytometry; assay type: cell-based; settings: 100 μg/ml
Experimental: Flowcytometric studies were carried out to determine the anti-inflammatory effect of AD-B-63B on TNF-α cytokine expression in LPS activated murine neutrophils. Neutrophils play essential roles in host defence through their ability to clear bacterial infections. Their inappropriate activation contributes to a variety of inflammatory diseases, from the acute respiratory distress syndrome to asthma, chronic obstructive pulmonary disease and rheumatoid arthritis. TNF-α was chosen as the target for anti-inflammatory activity because of the fact that it is a pro-inflammatory cytokine and plays a major role in the pathogenesis of septic shock induced by LPS (Lipopolysaccharide) endotoxin injection [Remick, D. G.; Strieter, R. M.; Eskandari, M. K.; Nguyen, D. T.; Genord, M. A.; Raiford, C. L. Am. J. Path. 1990, 136, 49.]. LPS is an important triggering factor for in vivo systemic inflammatory response [Bone, R. C. Chest 1991, 100, 802]. LPS activates neutrophils via engagement of TLR4 (Toll-like receptor 4),[Sabroe, I.; Read, R. C.; Whyte, M. K. B.; Dockrell, D. H.; Vogel, S. N.; Dower, S. K. J. Immunol. 2003, 171, 1630.] resulting in the induction of a characteristic pro-inflammatory phenotype and prolongation of cell lifespan [Lee, A.; Whyte, M. K. B.; Haslett, C. J. Leukoc. Biol. 1993, 54, 283].
The anti-inflammatory activity of AD-B-63B was measured by the estimation of intracellular tumor necrosis factor alpha (TNF-α) expression in a gated population of neutrophils [Clara, B., R. C. Arancha, G. M. Andre's, P. Atanasio, A. Julia, and O. Alberto. 2003. A new method for detecting TNF-α-secreting cells using direct immunofluorescence surface membrane stainings. J. Immuno. Methods 264:77-87.]. Murine blood was subjected to centrifugation at 250× g for 20 min. Three layers were formed: an upper layer of platelet-rich plasma, a buffy coat middle layer and a lower layer formed of red blood cells. The middle layer was removed and subjected to Histopaque 1077 (Sigma) gradient separation. The upper layer containing neutrophils was removed and transferred to FACS tubes (Becton Dickinson). Lipopolysaccharide (LPS) derived from Escherichia coli (Sigma) was added at a concentration of 10 ng/ml for the stimulation of the cells. AD-B-63B was added at graded concentrations of 0.5, 1, 2.5, 5, 10 and 20 μg/ml. Samples were incubated for 3 h at 37° C. ( Table 1) Controls consisted of LPS-stimulated cells (LPS control). Further processing was done by the addition of FACS permeabilizing solution (Becton Dickinson), followed by the addition of phycoerythrin (PE)-labeled anti-mouse TNF-α. (Becton Dickinson). The cells were incubated in the dark, and after being washed with sterile PBS, samples were resuspended in PBS (pH 7.4) and acquired directly on the flow cytometer (FACS CANTO; Becton Dickinson). A fluorescence trigger was set on the […] parameter of the gated neutrophil populations (10,000 events). Rolipram at 100 μg/ml was used as standard inhibitor of TNF-α in this study. Fluorescence compensation, data analysis and data presentation were performed using software (Becton Dickinson) (FIG. 1) [Pandey A, Bani S, Kaul S, Sangawan P L; 2010, Selective Th1 upregulation by ethyl acetate fraction of Labisia pumila; 132 (2010) 309-315].

| Structure (SMILES) | PERCENT INHIBITION (DTH response) [1] | FOOT PAD THICKNESS Mean ± SE ([1]; 24 h after SRBC challenge) | GRAFT REJECTION (Percent), delayed [2] | REJECTION TIME Mean ± S.E. ([2]; 5 mg/kg p.o. for 7 days) | GRAFT REJECTION (Percent), delayed ([2]; listed as PREDNISOLONE) | % phagocytosis [in vitro study] Mean ± S.E. [3] | percent decrease in phagocytosis [3] | percent decrease in phagocytosis ([3]; listed as PREDNISOLONE) | % inhibition of exudate volume [4] | % inhibition of total leucocyte count [4] | EXUDATE VOLUME Mean ± S.E. ([4]; 1 h before and 6 h after carrageenan, pleural exudate at 24 h) | % ACTIVITY (decrease in antibody titre) ([5]; 5 mg/kg p.o.) | ANTIBODY TITRE MEAN ± S.E ([5]; 5 mg/kg p.o. for six days, blood on day 7) | % activity IL-1β expression against LPS control (decrease) [6] | Concentration of IL-1β produced Mean ± S.E. ([6]; LPS 10 ng/ml, 4 hr) | Expression of intracellular TNF-alpha, Mean ± S.E ([7]; LPS 10 ng/ml, 3 h) | inhibition at 100 µg/mL ([7]; Mus musculus, Neutrophil, read-out: % TNF-alpha inhibition against LPS control) |
| --- | --- | --- | --- | --- | --- | --- | --- | --- | --- | --- | --- | --- | --- | --- | --- | --- | --- |
| C[C@]12C=CC(=O)C=C1CC[C@@H]1[C@@H]2[C@@H](O)C[C@@]2(C)[C@H]1CC[C@]2(O)C(=O)CO [Prednisolone, reference compound] | 35.86↓ % | 0.59 ± 0.05 mm | 39.69% | 18.16 ± 0.16 days | 39.69↓ % | 15.99 ± 2.17% | 40.35% | (40.35%↓) | (47.27%↓) | (33.23%↓) | 0.58 ± 0.28 mL | 35.22↓ % | 3.99 ± 0.22 | – | – | – | – |
| COc1ccc(C2CNC(=O)C2)cc1OC1CCCC1 (centres unmarked) [Rolipram, reference compound] | – | – | – | – | – | – | – | – | – | – | – | – | – | 52.85↓ % | 63.52 ± 2.07 pg/mL | 0.74 ± 0.04 | 72.5% |

Source: US20130136772A1, “REGULATION OF IMMUNE RESPONSE BY COLOCYNTHIN AND/OR ITS DERIVATIVES” (priority 2010, published 2013)
